Patent US8586522B2, “Glycol dilevulinates as coupling agents in cleaning formulations” (Dow Global Technologies LLC, priority 2011, dated 2013)

Experiments:
[1] = Coupling effectiveness / phase stability with d-limonene (Sets I & II); format: physicochemical; parameters: key to appearance of sample formulation (coupling of d-limonene): clear: Clear indicates successful coupling of the d-limonene; cloudy indicates poor or no coupling; conditions: for d-limonene level successfully coupled: 1% SLS, solvent at a 20% level, highest d-limonene level tested; for appearance of sample formulation (coupling of d-limonene): 20% coupling agent, Column 6; for effectiveness at coupling d-limonene: absence of surfactant (0% SLS)
Method: Two sets of experiments (I & II) were performed to determine the relative coupling effectiveness of fragrance (d-limonene)-containing aqueous formulations having various traditional coupling agents (glycol ethers) and those having various alkylene glycol dilevulinates as the coupling agents, at various temperatures (5° C., room temperature (25° C.) and 40° C.). The details are provided below and the results are shown in diagrams provided in FIGS. 1-16 and explained hereinbelow.
Stock solutions were prepared that contained the main components which didn't change throughout these experiments. Each formulation contained the following standard ingredients: […]
With reference now to the figures, FIGS. 1-8 relate to the Set of Comparative Examples. Each circle represents one sample formulation. More particularly, each of FIGS. 1 & 5 provide a schematic grid diagram of the general layout of sample formulations having various types of glycol ethers as coupling agents and various amounts of d-limonene fragrance, in the presence of 1% SLS surfactant and absence (0% SLS) of surfactant.
FIGS. 2-4 & 6-8 show the results (clear/white or cloudy/black) for the sample formulations identified in the grids of FIGS. 1 and 5 at 5° C., room temperature (25° C.), and 40° C., respectively. Clear indicates successful coupling of the d-limonene and cloudy indicates poor or no coupling.
FIGS. 9-16 relate to the Set II of Working Examples. As with FIGS. 1-8, each circle represents one sample formulation. More particularly, FIG. 9 provides a schematic grid diagram of the general layout of sample formulations having various types of alkylene glycol dilevulinates as coupling agents and various amounts of d-limonene fragrance. For instance, rows A & B of the grid in FIG. 9 were formulations that each had 0.25% by weight d-limonene. Thus, rows A & B of each of FIGS. 10-12 & 14-16 depict formulations that had 0.25% by weight d-limonene.
FIGS. 10-12 & 14-16 show the results (clear/white or cloudy/black) for the sample formulations identified in the grids of FIGS. 9 & 13 at 5° C., room temperature (25° C.), and 40° C., respectively. Clear indicates successful coupling of the d-limonene and cloudy indicates poor or no coupling.

[2] = Water solubility of alkylene glycol dilevulinates; format: physicochemical
Source text: Ethylene glycol dilevulinate (EGDL) is 100% water soluble while 1,2-propylene glycol dilevulinate (1,2-PGDL) is 10% soluble by weight in water, and 1,3-propylene glycol dilevulinate (1,3-PGDL) is 25% soluble. All three compounds also dissolve aromatic hydrocarbon compounds such as toluene and xylene, while having limited solubility for simple aliphatic hydrocarbons such as hexane and cyclohexane. Thus, C2-C3 alkylene glycol dilevulinates appear to provide the greatest benefits when used as coupling agents in water-based cleaning formulations.

| Structure (SMILES) | d-limonene level successfully coupled [1] | water soluble / soluble by weight in water [2] | effectiveness at coupling d-limonene [1] | also measured |
| --- | --- | --- | --- | --- |
| COC(C)COC(C)CO (centres unmarked) [DOWANOL DPM, dipropylene glycol methyl ether] | 3% | – | – | d-limonene level coupled into an aqueous mixture ([1]; absence of added SLS surfactant): more than 0.25% |
| CC(=O)CCC(=O)OCCCOC(=O)CCC(C)=O [1,3-PGDL, 1,3-propylene glycol dilevulinate] | – | 25% | – | – |
| CC(=O)CCC(=O)OCC(C)OC(=O)CCC(C)=O (centres unmarked) [1,2-PGDL, 1,2-propylene glycol dilevulinate] | – | 10% | – | – |
| CC(=O)CCC(=O)OCCCOC(=O)CCC(C)=O [1,3-propylene glycol dilevulinate] | – | – | better than 1,2-propylene glycol dilevulinate | – |

Further lines, with some results ahead:

| d-limonene level successfully coupled [1] | water soluble / soluble by weight in water [2] | Structure (SMILES) | effectiveness at coupling d-limonene [1] | also measured |
| --- | --- | --- | --- | --- |
| – | 100% | CC(=O)CCC(=O)OCCOC(=O)CCC(C)=O [EGDL, ethylene glycol dilevulinate] | better than 1,2-propylene glycol dilevulinate | appearance of sample formulation (coupling of d-limonene) ([1]; 5° C. (FIG. 2), 1.5% d-limonene, Row F): clear; appearance of sample formulation (coupling of d-limonene) ([1]; 40° C., 1.5% d-limonene, Row F): cloudy; appearance of sample formulation (coupling of d-limonene) ([1]; room temperature (FIG. 3), 1.5% d-limonene, Row F): clear |
| 3% | – | CCCCCCOCCOCCO [HxCb, diethylene glycol n-hexyl ether] | – | appearance of sample formulation (coupling of d-limonene) ([1]; 5° C. (FIG. 2), 0.75% d-limonene, Row D): cloudy; appearance of sample formulation (coupling of d-limonene) ([1]; 40° C., 0.75% d-limonene, Row D): cloudy; appearance of sample formulation (coupling of d-limonene) ([1]; room temperature (FIG. 3), 0.75% d-limonene, Row D): clear |
